# Results: patent US20230312587A1, “PTERIDINONE COMPOUNDS AND USES THEREOF” (Vertex Pharmaceutical Incorporated, priority 2018, published 2023)
# Tested on: β-catenin-TCF-mediated reporter transcription activity in Colo 205 cells
# Assay: Colo 205 reporter assay (TCF/LEF luciferase)
# Format: cell-based
# Settings: Colo 205 TCF/LEF luciferase reporter, five hours after addition of compound; read-out: TCF reporter Colo205 IC50
# Method in brief: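 Luciferase signal from a TCF/LEF-driven reporter, stably integrated in Colo 205 colon cancer cells, was measured 5 h after compound addition.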
row,Structure (SMILES),IC50
1,"Cc1nc(NCc2cnn(Cc3ccc(C(F)(F)F)nc3)c2)nc2c1NC(=O)C1(CCOC1)N2C (centres unmarked) [Compound 662, 4′,8′-dimethyl-2′-(((1-((6-(trifluoromethyl)pyridin-3-yl)methyl)-1H-pyrazol-4-yl)methyl)amino)-4,5,5′,8′-tetrahydro-2H,6′H-spiro[furan-3,7′-pteridin]-6′-one]",300 to 1000 nM
2,"Cc1nc(NCc2cnn(Cc3ccc(C(F)(F)F)nc3)c2)nc2c1NC(=O)C1(CCOC1)N2C (centres unmarked) [Compound 663, 4′,8′-dimethyl-2′-(((1-((6-(trifluoromethyl)pyridin-3-yl)methyl)-1H-pyrazol-4-yl)methyl)amino)-4,5,5′,8′-tetrahydro-2H,6′H-spiro[furan-3,7′-pteridin]-6′-one]",1000 to 5000 nM
3,"COC1(C2C(=O)Nc3c(C)nc(NCc4cnn(Cc5cc(C(F)(F)F)nn5C)c4)nc3N2C)CC1 (centres unmarked) [Compound 666, 7-(1-methoxycyclopropyl)-4,8-dimethyl-2-(((1-((1-methyl-3-(trifluoromethyl)-1H-pyrazol-5-yl)methyl)-1H-pyrazol-4-yl)methyl)amino)-7,8-dihydropteridin-6(511)-one]",300 to 1000 nM

# Next, values leading:
row,IC50,Structure (SMILES)
1,< 300 nM,"Cc1nc(N[C@H]2C[C@@H](Cc3nc(C(F)(F)F)no3)C2)nc2c1NC(=O)[C@H](C(C)C)N2C [Compound 660, (S)-7-isopropyl-4,8-dimethyl-2-(((1s,3R)-3-((3-(trifluoromethyl)-1,2,4-oxadiazol-5-yl)methyl)cyclobutyl)amino)-7,8-dihydropteridin-6(5H)-one]"
2,300 to 1000 nM,"CO[C@H](C)[C@H]1C(=O)Nc2c(C)nc(N[C@H]3C[C@@H](Cc4nc(C(F)(F)F)no4)C3)nc2N1C [Compound 664, (S)-7-((R)-1-methoxyethyl)-4,8-dimethyl-2-(((1s,3R)-3-((3-(trifluoromethyl)-1,2,4-oxadiazol-5-yl)methyl)cyclobutyl)amino)-7,8-dihydropteridin-6(5H)-one]"

# Same assay, conditions: Homo sapiens, COLO 205, 5 h, Colo 205 TCF/LEF luciferase reporter, five hours after addition of compound; read-out: TCF reporter Colo205 IC50
row,Structure (SMILES),IC50
1,"CO[C@H](C)[C@H]1C(=O)Nc2c(C)nc(NCc3cnn(Cc4cc(F)c(F)c(F)c4)c3)nc2N1C [Compound 659, (S)-7-((R)-1-methoxyethyl)-4,8-dimethyl-2-(((1-(3,4,5-trifluorobenzyl)-1H-pyrazol-4-yl)methyl)amino)-7,8-dihydropteridin-6(5H)-one]",< 300 nM
2,"COC1(C2C(=O)Nc3c(C)nc(NCc4cnn(Cc5ccc(C(F)(F)F)nc5)c4)nc3N2C)CCC1 (centres unmarked) [Compound 661, 7-(1-methoxycyclobutyl)-4,8-dimethyl-2-(((1-((6-(trifluoromethyl)pyridin-3-yl)methyl)-1H-pyrazol-4-yl)methyl)amino)-7,8-dihydropteridin-6(5H)-one]",< 300 nM
3,"COC1(C2C(=O)Nc3c(C)nc(NCc4cnn(Cc5ccc(C(F)(F)F)nc5)c4)nc3N2C)CC1 (centres unmarked) [Compound 665, 7-(1-methoxycyclopropyl)-4,8-dimethyl-2-(((1-((6-(trifluoromethyl)pyridin-3-yl)methyl)-1H-pyrazol-4-yl)methyl)amino)-7,8-dihydropteridin-6(5H)-one]",300 to 1000 nM
4,"COC1(C2C(=O)Nc3c(C)nc(NCc4cnn(Cc5cc(F)c(F)c(F)c5)c4)nc3N2C)CCC1 (centres unmarked) [Compound 668, 7-(1-methoxycyclobutyl)-4,8-dimethyl-2-(((1-(3,4,5-trifluorobenzyl)-1H-pyrazol-4-yl)methyl)amino)-7,8-dihydropteridin-6(5H)-one]",< 300 nM
5,"COC1(C2C(=O)Nc3c(C)nc(NCc4cnn(Cc5cc(C(F)(F)F)nn5C)c4)nc3N2C)CCC1 (centres unmarked) [Compound 670, 7-(1-methoxycyclobutyl)-4,8-dimethyl-2-(((1-((1-methyl-3-(trifluoromethyl)-1H-pyrazol-5-yl)methyl)-1H-pyrazol-4-yl)methyl)amino)-7,8-dihydropteridin-6(5H)-one]",< 300 nM
6,"Cc1nc(N[C@H]2C[C@H](Oc3cc(F)c(F)c(F)c3)C2)nc2c1NC(=O)[C@H](COC(C)(C)C)N2C [Compound 674, (S)-7-(tert-butoxymethyl)-4,8-dimethyl-2-((trans-3-(3,4,5-trifluorophenoxy)cyclobutyl)amino)-7,8-dihydropteridin-6(5H)-one]",< 300 nM
7,"COC1(C2C(=O)Nc3c(C)nc(NC4CN(C(=O)c5cc(F)c(F)c(F)c5)C4)nc3N2C)CCC1 (centres unmarked) [Compound 675, 7-(1-methoxycyclobutyl)-4,8-dimethyl-2-((1-(3,4,5-trifluorobenzoyl)azetidin-3-yl)amino)-7,8-dihydropteridin-6(5H)-one]",300 to 1000 nM
8,"CC[C@H]1C(=O)Nc2c(C)nc(N[C@H]3C[C@H](N(C)c4cnc(C(F)(F)F)cn4)C3)nc2N1C [Compound 682, (S)-7-ethyl-4,8-dimethyl-2-((trans-3-(methyl(5-(trifluoromethyl)pyrazin-2-yl)amino)cyclobutyl)amino)-7,8-dihydropteridin-6(5H)-one]",< 300 nM

# Results, then the compound that gave them:
row,IC50,Structure (SMILES)
1,< 300 nM,"CO[C@H](C)[C@H]1C(=O)Nc2c(C)nc(N[C@H]3C[C@H](Oc4cnc(C(F)(F)F)nc4)C3)nc2N1C [Compound 657, (S)-7-((R)—1-methoxyethyl)-4,8-dimethyl-2-((trans-3-((2-(trifluoromethyl)pyrimidin-5-yl)oxy)cyclobutyl)amino)-7,8-dihydropteridin-6(5H)-one]"
2,300 to 1000 nM,"Cc1nc(N[C@H]2C[C@H](n3nccc3C(F)(F)F)C2)nc2c1NC(=O)[C@H](C(C)C)N2C [Compound 673, (7S)-7-isopropyl-4,8-dimethyl-2-((trans-3-(5-(trifluoromethyl)-1H-pyrazol-1-yl)cyclobutyl)amino)-7,8-dihydropteridin-6(5H)-one]"
3,300 to 1000 nM,"Cc1nc(N[C@H]2C[C@@H](Cn3cncc3C(F)(F)F)C2)nc2c1NC(=O)[C@H](C(C)C)N2C [Compound 679, (S)-7-isopropyl-4,8-dimethyl-2-((cis-3-((5-(trifluoromethyl)-1H-imidazol-1-yl)methyl)cyclobutyl)amino)-7,8-dihydropteridin-6(5H)-one]"
4,300 to 1000 nM,"Cc1nc(N[C@H]2C[C@@H](Cn3cnc(C(F)(F)F)c3)C2)nc2c1NC(=O)[C@H](C(C)C)N2C [Compound 680, (S)-7-isopropyl-4,8-dimethyl-2-((cis-3-((4-(trifluoromethyl)-1H-imidazol-1-yl)methyl)cyclobutyl)amino)-7,8-dihydropteridin-6(5H)-one]"
5,300 to 1000 nM,"CO[C@H](C)[C@H]1C(=O)Nc2c(C)nc(N[C@H]3C[C@H](N(C)c4cnc(C(F)(F)F)cn4)C3)nc2N1C [Compound 681, (S)-7-((R)-1-methoxyethyl)-4,8-dimethyl-2-((trans-3-(methyl(5-(trifluoromethyl)pyrazin-2-yl)amino)cyclobutyl)amino)-7,8-dihydropteridin-6(5H)-one]"
6,300 to 1000 nM,"Cc1nc(N[C@H]2C[C@H](N(C)c3cnc(C(F)(F)F)cn3)C2)nc2c1NC(=O)[C@H](C)N2C [Compound 683, (S)-4,7,8-trimethyl-2-((trans-3-(methyl(5-(trifluoromethyl)pyrazin-2-yl)amino)cyclobutyl)amino)-7,8-dihydropteridin-6(5H)-one]"
7,< 300 nM,"Cc1nc(N[C@H]2C[C@@H](Cn3ccc(C(F)(F)F)n3)C2)nc2c1NC(=O)[C@H](C(C)C)N2C [Compound 690, (S)-7-isopropyl-4,8-dimethyl-2-((cis-3-((3-(trifluoromethyl)-1H-pyrazol-1-yl)methyl)cyclobutyl)amino)-7,8-dihydropteridin-6(5H)-one]"
